{"source": "patent US12194080B2", "about": "“Methods for identification, assessment, prevention, and treatment of metabolic disorders using PM20D1 and N-lipidated amino acids” (Dana-Farber Cancer Institute, Inc., priority 2015, dated 2025)", "key": {"[1]": {"tested_on": "Diet induced obese (DIO) mice", "assay": "Chronic daily i.p. administration of N-acyl amino acids to DIO mice (body weight, food intake, body composition, GTT)", "type": "in vivo, mouse", "details": "for body weight lost: after 8 days treatment, mean±SEM", "procedure": "(§1) Animal experiments were performed according to procedures approved by the Beth Israel Deaconess Medical Center IACUC. Mice were maintained in 12 h light-dark cycles at 22° C. and fed a standard irradiated rodent chow diet. All experiments on wild-type mice were performed with male C57BL/6 mice purchased from Jackson Laboratories, except for the AAV experiments, which were performed with male C57BL/6 mice from Charles River. UCP1-KO (stock #017476) and 16-20 week DIO mice (stock #380050) were obtained from Jackson Laboratories. For AAV injection experiments, mice were gently warmed using a 250 W clear infrared heat lamp, immobilized, and injected via tail vein with 10^10 virus/mouse (diluted in saline) in a total volume of 100 μl/mouse. Where indicated, mice were placed on high-fat diet (60% fat, Research Diets). For cold exposure experiments, mice were group housed and placed at 4° C. for the indicated times. For the preparation of C18:1-Phe for in vivo injections, compounds were dissolved in 18:1:1 v/v/v saline:Kolliphor® EL (Sigma Aldrich):DMSO and sonicated until homogeneous. Mice were administered compounds at 5 μl/g body weight at the indicated doses. For all injection experiments, mice were mock injected with saline daily for 3 days prior to the start of the experiments. For glucose tolerance tests (GTTs), mice received their final dose of compound the day prior to the assay and were then fasted overnight. Glucose was administered at 1.5 g/kg.\n(§2) Energy expenditure, O2 consumption, CO2 production, respiratory exchange ratio, total locomotor activity, and food intake measurements were made with a 16-cage Columbus Instruments Oxymax Comprehensive Lab Animal Monitoring System (CLAMS) at ambient room temperature (21-23° C.). Mice were acclimated for one day in metabolic cages prior to data collection. Whole-body composition was assessed with an EchoMRI™ 3-in-1 on conscious mice."}, "C2C12 cells": {"tested_on": "C2C12 cells", "assay": "Cellular oxygen consumption rate (uncoupled respiration), C2C12 cells", "type": "cell-based, mouse", "details": "50 μM, after oligomycin 1 μM", "procedure": "(§3) C2C12, U2O5, and 293A cells were cultured in DMEM with 10% FBS and pen/strep. Primary inguinal (iWAT) and brown (BAT) adipocytes were obtained as follows. The stromal-vascular fraction of inguinal (iWAT) pad from 4-12 week old male mice was dissected, minced, and digested for 45 min. at 37° C. in PBS containing 10 mM CaCl2, 2.4 U/ml dispase II (Roche), and 1.5 U/ml collagenase D (Roche). The stromal-vascular fraction of brown fat (BAT) pads from newborn (P1-P14) pups was dissected, minced, and digested for 45 min at 37° C. in PBS containing 1.3 mM CaCl2, 120 mM NaCl, 5 mM KCl, 5 mM glucose, 100 mM HEPES, 4% BSA, and 1.5 mg/ml collagenase B (Roche). Digested tissue was diluted with adipocyte culture media (DMEM/F-12, GlutaMAX™ supplement, Life Technologies, with 10% FBS and pen/strep) and centrifuged (600×g for 10 min.). The pellet was resuspended in 10 ml adipocyte culture media, strained through a 40 μm filter, and plated. Differentiation was induced by application of an adipogenic cocktail containing 5 μg/ml insulin (Sigma), 5 μM dexamethasone (Sigma), 250 μM isobutylmethylxanthine (Sigma), and 1 μM rosiglitazone (Cayman) for 2 days. Two days after induction, cells were maintained in adipocyte culture media containing 5 μg/ml insulin and 1 μM rosiglitazone.\n(§4) Cellular oxygen consumption rates were determined using an XF24 Extracellular Flux Analyzer (Seahorse Biosciences). Oligomycin was purchased from EMD Millipore, and FCCP and rotenone were purchased from Sigma. C2C12 or U2OS cells were seeded at 30,000 or 50,000 cells/well, respectively in an XF24 cell culture microplate (V7-PS, Seahorse Bioscience) and analyzed the following day. Primary iWAT or BAT adipocytes were seeded at 15,000 cells/well, differentiation was induced the following day as described, and the cells were analyzed on day 5. On the day of analysis, the cells were washed once with Seahorse respiration buffer (8.3 g/1 DMEM, 1.8 g/l NaCl, 1 mM pyruvate, 20 mM glucose, pen/strep), placed in 0.5 ml Seahorse respiration buffer, and incubated in a CO2-free incubator for 1 hr. Port injection solutions were prepared as follows (final concentrations in assay in parentheses): 10 μM oligomycin (1 μM final), […] amino acid (50 μM final), 2 μM FCCP (0.2 μM final), and 30 μM rotenone (3 μM final). The Seahorse program was run as follows: basal measurement, 3 cycles; inject port A (oligomycin), 3 cycles; inject port B (compounds), 8 cycles; inject port C (FCCP), 3 cycles; inject port D (rotenone), 3 cycles. Each cycle consisted of mix 4 min, wait 0 min, and measure 2 min. For data expressed as a percentage of oligomycin-treated basal, the respiration at cycle 6 was normalized to 100%, and the maximum respiration at any time point between cycles 7 and 15 inclusive was used."}, "[2]": {"tested_on": "Diet induced obese (DIO) mice", "assay": "Indirect calorimetry (CLAMS) of high fat diet/DIO mice treated with N-acyl amino acids", "type": "in vivo, mouse", "procedure": "as §1, §2"}, "U2OS cells": {"tested_on": "U2OS cells", "assay": "Cellular oxygen consumption rate (uncoupled respiration), U2OS cells", "type": "cell-based, human", "details": "50 μM, after oligomycin 1 μM", "procedure": "as §3, §4"}, "[3]": {"tested_on": "primary inguinal fat cells, primary BAT cells, C2C12 cells, and U2OS cells", "assay": "Uncoupled respiration cellular assays (variety of cell types)", "type": "cell-based", "details": "N-acyl amino acids at 10-100 uM", "procedure": "as §4"}, "mouse PM20D1": {"target": "T1, mouse PM20D1 (Mus musculus, UniProt Q8C165)", "T1 construct": "Full-length mouse Pm20d1 cDNA (GE Dharmacon) was subcloned with an in-frame C-terminal 6× His and FLAG® tag; made in house; host or cells: 293A (HEK293A) cells stably infected with retrovirus", "T1 sequence (Q8C165 25-503)": "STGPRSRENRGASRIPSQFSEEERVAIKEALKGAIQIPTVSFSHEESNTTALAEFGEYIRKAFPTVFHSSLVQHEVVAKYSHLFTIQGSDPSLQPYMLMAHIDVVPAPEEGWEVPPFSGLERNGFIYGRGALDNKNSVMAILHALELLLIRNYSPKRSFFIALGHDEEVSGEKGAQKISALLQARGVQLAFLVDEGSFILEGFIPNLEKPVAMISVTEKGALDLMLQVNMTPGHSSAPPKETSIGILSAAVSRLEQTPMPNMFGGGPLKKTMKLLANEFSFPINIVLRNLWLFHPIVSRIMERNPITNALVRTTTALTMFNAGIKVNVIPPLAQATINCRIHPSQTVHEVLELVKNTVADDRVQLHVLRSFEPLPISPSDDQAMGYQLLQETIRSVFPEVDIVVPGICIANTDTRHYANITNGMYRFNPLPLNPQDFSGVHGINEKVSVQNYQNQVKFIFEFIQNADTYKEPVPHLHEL", "assay": "In vitro PM20D1-catalyzed synthesis of N-acyl amino acids", "type": "biochemical", "details": "head group 100 μM; oleate or arachidonate 1.5 mM, C18:1-CoA 0.7 mM", "procedure": "The concentrated media was centrifuged to remove debris (600×g, 10 min, 4° C.) and the supernatant containing PM20D1-flag was decanted into a new tube. PM20D1-Flag was immunoaffinity purified overnight at 4° C. from the concentrated media using magnetic Flag-M2 beads (Sigma Aldrich). The beads were collected, washed three times in PBS, eluted with 3× Flag peptide ([…] in PBS, Sigma Aldrich), aliquoted, and stored at −80° C. For the purification of human PM20D1-flag, hPM20D1-flag plasmid (Origene) was transiently transfected into 293A cells. After two days, the media was changed, harvested 24 h later, concentrated, and purified exactly as described above.\nIn vitro PM20D1-catalyzed synthesis of N-acyl amino acids was measured by incubating purified PM20D1 protein with oleate (1.5 mM) and phenylalanine (0.1 mM) in PBS (to 100 μl final volume) at 37° C. for 1.5 hrs. In vitro PM20D1-catalyzed N-acyl amino acid hydrolysis was measured by incubating purified PM20D1 protein with the indicated N-acyl amino acid (0.1 mM) in PBS (to 100 μl final volume) at 37° C. for 1.5 hrs. Reactions were terminated by placing the vials at −80° C. and the products generated in vitro were analyzed by mass spectroscopy (MS).\nBriefly, frozen serum (30 μl) for polar metabolomic analyses were extracted in 160 μl of 1:1 acetonitrile/methanol with inclusion of internal standard D3, ^15N-serine (1 nmol). Activity assays (100 μl) were extracted in 400 μl 1:1 acetonitrile/methanol. Following 30 s of thorough vortexing and 1 min of bath sonication, the polar metabolite fraction (supernatant) was isolated by centrifugation at 13,000×g for 10 min. Ten μl of this supernatant was analyzed by SRM-based targeted LC-MS/MS, or untargeted LC-MS.\nFor separation of polar metabolites, normal-phase chromatography was performed with a […] column (50 mm×4.60 mm, Phenomenex). Mobile phases were as follows: Buffer A, acetonitrile; Buffer B, 95:5 water/acetonitrile with 0.1% formic acid or 0.2% ammonium hydroxide with 50 mM ammonium acetate for positive and negative ionization mode, respectively. The flow rate for each run started at 0.2 ml/min for 2 min, followed by a gradient starting at 0% B and increasing linearly to 100% B over the course of 15 min with a flow rate of 0.7 ml/min, followed by an isocratic gradient of 100% B for 10 min at 0.7 ml/min before equilibrating for 5 min at 0% B with a flow rate of 0.7 ml/min. MS analysis was performed with an electrospray ionization (ESI) source on an Agilent 6430 QQQ LC—MS/MS. The capillary voltage was set to 3.5 kV, and the fragmentor voltage was set to 100 V. The drying gas temperature was 325° C., the drying gas flow rate was 10 l/min, and the nebulizer pressure was 45 psi. For polar targeted and untargeted metabolomic analysis, representative metabolites were quantified by SRM of the transition from precursor to product ions (corresponding to amino acid fragment) at associated collision energies. Several representative fragmentation ions are as follows: C18:1-Ala, 352>88; C18:1-Gly, 338>74; C18:1-Phe, 428>164; C18:1-Leu/Ile, 394>130; C20:4-Phe, 450>164; C20:4-Leu/Ile, 416>130. Untargeted LC-MS was performed by scanning a mass range of m/z 50-1200, and data were exported as mzdata files and uploaded to XCMSOnline (xcmsserver.nutr.berkeley.edu) to identify metabolites that were differentially changed. For targeted metabolomics analysis, metabolites were quantified by integrating the area under the peak and were normalized to internal standard values corresponding to 1 nmol D3, ^15N-serine."}, "[4]": {"tested_on": "differentiated primary iWAT cells", "assay": "Cellular oxygen consumption rate (Seahorse XF24), differentiated primary iWAT adipocytes", "type": "cell-based, mouse", "details": "50 μM, in presence of oligomycin; control fatty acid", "procedure": "as §3, §4"}, "[5]": {"details": "daily i.p.: C18:1-Leu 25, C18:1-Phe 30, C20:4-Gly 15 mg/kg/day"}}, "data": [{"smiles": "CCCCCCCC/C=C\\CCCCCCCC(=O)N[C@@H](CC(C)C)C(=O)O", "note": "[C18:1-Leu, Oleoyl-L-leucine]", "values": [{"measurement": "reduction of food intake versus vehicle-treated mice", "setting": "[1]; 25 mg/kg, i.p., daily", "result": 17, "unit": "%"}, {"measurement": "body weight lost", "setting": "[1]; 25 mg/kg, i.p., daily", "result": "4.1 ± 0.3", "unit": "g"}, {"measurement": "body composition analysis (weight loss)", "setting": "[1]; 25 mg/kg/day i.p., MRI", "result": "entirely accounted for by a difference in fat mass"}, {"measurement": "GTT", "setting": "[1]; 25 mg/kg/day i.p., glucose 1.5 g/kg, versus vehicle- or oleate-treated mice", "result": "improvements"}, {"measurement": "uncoupling activity (uncoupled respiration)", "setting": "C2C12 cells", "result": "significantly more potent than the free fatty acid alone"}, {"measurement": "RER", "setting": "[2]; C18:1-Leu 25 mg/kg/day i.p.", "result": "significantly lower"}, {"measurement": "VCO2", "setting": "[2]; C18:1-Leu 25 mg/kg/day i.p.", "result": "significantly augmented"}, {"measurement": "food intake over the final two days of the experiment", "setting": "[2]; C18:1-Leu 25 mg/kg/day i.p., metabolic cages", "result": "reduced food intake"}, {"measurement": "VO2", "setting": "[2]; [5]", "result": "significantly augmented"}, {"measurement": "movement", "setting": "[2]; [5]", "result": "slightly reduced"}]}, {"smiles": "CCCCCCCCCCCCCCCCCCCC(=O)N[C@@H](Cc1ccccc1)C(=O)O", "note": "[N-arachidoyl phenylalanine, Icosanoyl-L-phenylalanine]", "values": [{"measurement": "uncoupling activity (uncoupled respiration)", "setting": "U2OS cells", "result": "completely lacked uncoupling activity"}, {"measurement": "uncoupled respiration in cells", "setting": "[3]", "result": "inactive"}]}, {"smiles": "CCCCCCCCCCCC(=O)N[C@@H](Cc1ccccc1)C(=O)O", "note": "[N-lauroyl phenylalanine, Dodecanoyl-L-phenylalanine]", "values": [{"measurement": "uncoupling activity (uncoupled respiration)", "setting": "U2OS cells", "result": "completely lacked uncoupling activity"}, {"measurement": "uncoupled respiration in cells", "setting": "[3]", "result": "inactive"}]}, {"smiles": "CCCCCCCCCCCCCCCC(=O)N[C@@H](Cc1ccccc1)C(=O)O", "note": "[N-palmitoyl phenylalanine, Palmitoyl-L-phenylalanine]", "values": [{"measurement": "uncoupling activity (uncoupled respiration)", "setting": "U2OS cells", "result": "possessed uncoupling activity"}, {"measurement": "uncoupled respiration in cells", "setting": "[3]", "result": "increased uncoupled respiration"}]}, {"smiles": "CCCCCCCCCCCCCCCCCC(=O)N[C@@H](Cc1ccccc1)C(=O)O", "note": "[N-stearoyl phenylalanine, Stearoyl-L-phenylalanine]", "values": [{"measurement": "uncoupling activity (uncoupled respiration)", "setting": "U2OS cells", "result": "possessed uncoupling activity"}, {"measurement": "uncoupled respiration in cells", "setting": "[3]", "result": "increased uncoupled respiration"}]}, {"smiles": "CCCCC/C=C\\C/C=C\\C/C=C\\C/C=C\\CCCC(=O)O", "note": "[arachidonate, arachidonic acid, reference compound]", "values": [{"measurement": "substrate of the PM20D1 synthase reaction", "setting": "mouse PM20D1", "result": "capable of using arachidonate as a fatty acid donor"}, {"measurement": "oxygen consumption rate", "setting": "[4]", "result": "increased the oxygen consumption rate very modestly"}]}, {"smiles": "CCCCCCCC/C=C\\CCCCCCCC(=O)[O-].[Na+]", "note": "[oleate, sodium oleate, reference compound]", "values": [{"measurement": "body weight lost", "setting": "[1]; 25 mg/kg, i.p., daily", "result": "0.3 ± 0.2", "unit": "g"}, {"measurement": "substrate of the PM20D1 synthase reaction", "setting": "mouse PM20D1", "result": "strong preference for free oleate over oleoyl-coenzyme A"}, {"measurement": "uncoupled respiration in cells", "setting": "[3]", "result": "inactive"}]}]}
